Measurements from doi:10.1101/2024.02.27.582382, “Distinct roles of the major binding residues in the cation-binding pocket of MelB” (bioRxiv, 2024).
Like-named read-outs stand apart in the source and are kept apart here.

Assays:
[1] = target: T1, MelBSt (melibiose permease of Salmonella enterica serovar Typhimurium) (Salmonella enterica, UniProt P30878); experiment: ITC; assay type: binding; settings: pH 8.5, 25 °C, Na+-free, 20 mM Tris-HCl, 100 mM choline chloride, 0.035% UDM
T1 construct: gene melB; full length, C-terminal His10 tag (plasmid pK95 delta-AH/MelBSt/CHis10), expressed in E. coli DW2; modelled residues 2-454 or 2-456

[2] = target: T2, MelBSt (melibiose permease of Salmonella enterica serovar Typhimurium) (Salmonella enterica, UniProt P30878, D55C); experiment: biochemical
T2 construct: gene melB
From the text: ITC on MelBSt (melibiose permease of Salmonella enterica serovar Typhimurium)

Asp59 = Asp59 (UniProt position 59, WDAINDPIMGW); experiment: ITC; settings: cited from earlier work

T2 sequence (P30878 whole entry D55C): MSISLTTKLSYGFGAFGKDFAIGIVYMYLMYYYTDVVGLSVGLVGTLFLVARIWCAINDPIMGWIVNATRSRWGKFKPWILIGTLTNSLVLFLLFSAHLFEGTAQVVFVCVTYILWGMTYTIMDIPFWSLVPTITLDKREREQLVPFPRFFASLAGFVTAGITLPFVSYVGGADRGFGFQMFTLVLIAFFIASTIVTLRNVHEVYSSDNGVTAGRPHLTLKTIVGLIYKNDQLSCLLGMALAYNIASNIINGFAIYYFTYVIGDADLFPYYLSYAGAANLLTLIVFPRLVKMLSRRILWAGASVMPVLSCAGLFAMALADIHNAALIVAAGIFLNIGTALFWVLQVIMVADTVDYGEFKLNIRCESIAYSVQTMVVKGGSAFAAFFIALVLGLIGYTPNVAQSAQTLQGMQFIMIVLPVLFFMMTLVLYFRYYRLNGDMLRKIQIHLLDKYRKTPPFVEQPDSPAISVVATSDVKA
T1 sequence (P30878 whole entry, the tested form may be a part): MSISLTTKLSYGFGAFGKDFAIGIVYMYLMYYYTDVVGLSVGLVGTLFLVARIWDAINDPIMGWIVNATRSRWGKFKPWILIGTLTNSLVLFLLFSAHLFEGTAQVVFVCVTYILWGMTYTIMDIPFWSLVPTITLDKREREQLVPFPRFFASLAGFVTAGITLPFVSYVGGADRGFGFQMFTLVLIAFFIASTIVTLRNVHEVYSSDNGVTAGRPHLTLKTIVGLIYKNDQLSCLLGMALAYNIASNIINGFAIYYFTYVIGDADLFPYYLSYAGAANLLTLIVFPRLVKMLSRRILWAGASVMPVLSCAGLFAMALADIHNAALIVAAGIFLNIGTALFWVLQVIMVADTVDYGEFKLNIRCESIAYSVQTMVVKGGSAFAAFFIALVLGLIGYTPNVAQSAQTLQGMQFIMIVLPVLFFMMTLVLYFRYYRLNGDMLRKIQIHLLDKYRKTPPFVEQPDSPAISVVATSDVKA

**Q.** For OC[C@H]1O[C@H](OC[C@H]2OC(O)[C@H](O)[C@@H](O)[C@@H]2O)[C@H](O)[C@@H](O)[C@H]1O (some centres unmarked) [melibiose], which Kd [1] is on record?
**A.** The Kd was 8.5 ± 0.21 mM.

**Q.** And the Kd ([2]; read-out: Melibiose, pH 7.5, 25 °C, no Na+ or Li+, UDM)?
**A.** Its Kd is 5.82 ± 0.46 mM.

**Q.** For O=[N+]([O-])c1ccc(O[C@H]2O[C@H](CO)[C@H](O)[C@H](O)[C@H]2O)cc1 [α-NPG, 4-nitrophenyl-α-D-galactopyranoside], which Kd [2] is on record?
**A.** Its Kd is 0.0151 ± 0.00186 mM.

**Q.** For “Melibiose permease MelB (MelBSt) (Salmonella enterica serovar Typhimurium)”, which pKa (Asp59; absence of melibiose (sugar-free)) is on record?
**A.** Its pKa is 6.25.

**Q.** And the pKa (Asp59; presence of melibiose)?
**A.** The pKa was “approximately 6.5”.
